Laboratory results: EP4461293B1, “BIOTIN RECEPTOR-BINDING […] COMPOUNDS” (Biomedical Research Foundation Academy of Athens, priority 2023, dated 2024)
Values joined by “and” are separate entries in the source; they are usually repeats but may differ in a detail not shown here. Identical values can stand only once. Like-named read-outs stand apart in the source and are kept apart here.

How the values were obtained:
[1] = test system: MCF-7; assay: MTT viability assay, MCF-7; assay type: cell-based, human
[2] = test system: HCT-116; assay: MTT viability assay, HCT-116; assay type: cell-based; conditions: 72h, human colon cancer cells, biotin receptor-negative (Table 3a)
[3] = test system: human mesenchymal stem cells (WJ-MSCs); assay: MTT viability assay, toxicity to normal cells; assay type: cell-based; conditions: 48 h growth in presence of drug, MTT assay (Figure 1)
Description: Thus, human mesenchymal stem cells were extracted from Wharton's jelly (matrix) of the human fetal umbilical cord, also known as Wharton's Jelly Mesenchymal Stem cells (WJ-MSCs), from full-term pregnancies, as described in Christodoulou et al. [2022] and Goulielmaki et al. [2019].
WJ-MSCs up to seventh passage were used for this in vitro assay (b22 population doublings). The mean population doubling time (PDT) was 32+/- hours and cells maintained a consistent MSC immunophenotypic profile. […]
Cell viability of (WJ-MSCs) was determined colorimetrically in a 96-well plate assay, using the tetrazolium compound MTS (3-[4,5,dimethylthiazol-2-yl]-5-[3-carboxymethoxy-phenyl]-2-[4-sulfophenyl]-2H-tetrazolium, inner salt), which is bioreduced by cells into a colored formazan product that is soluble in tissue culture medium. […]
At a concentration of 3.5x10^2 cells/200 µL culture medium/well (37 °C, 5% CO2), WJ-MSCs were plated into 96-well microtiter plates. […] At the end, the absorbance was measured at 490nm (with 650nm as a reference wavelength) in a microplate reader (monochromator) [Monochro-mator Microplate Reader safire2 TECAN AUSTRIA GMBH/Measurement parameter Editor Magellan (version 6)].

[4] = Pharmacokinetic study in mice, plasma by LC-MS/MS; assay type: in vivo, female C57BL/6 mice; conditions: ip
Procedure: Samples (plasma) were collected after 15, 30, 60 and 120 min of drug administration.
All samples were analyzed by an LC-MS/MS bioanalytical methodology.

[5] = test system: SkBr3 human breast cancer cells; assay: MTT viability assay, SkBr3; assay type: cell-based; conditions: 72h (Table 3b)
[6] = test system: MDA-MB-231; assay: MTT viability assay, MDA-MB-231; assay type: cell-based, human; conditions: 72h (Table 3b)
[7] = test system: SkBr3; assay: Platinum cell uptake by mass cytometry (CyTOF), SkBr3; assay type: cell-based; conditions: for cellular uptake (CyTOF Pt195 signal): 50 µM, 60 min, in comparison to 50 µM carboplatin (Figure 3)
Procedure: (§1) Cell cultures: Cancer cell lines, SkBr3, MDA-MB-231, MCF-7 and A549, which overexpress biotin receptors on their surface membranes, were each independently cultured in Dulbecco's Modified Eagle Medium (DMEM), supplemented with 10% fetal bovine serum (FBS), penicillin (100 µ/mL) and streptomycin (100 µg/mL) at 37 °C and 5% CO2.
(§2) For MCF-7, MDA-MB-231 and SkBr3 cell lines, an additional step was performed by preincubating for 15 min with 10-100 µM biotin. The quantification was performed by means of mass cytometry. Cell singlet discrimination - staining protocol B of the mass cytometer supplier (Fluidigm) was followed.
Medium was removed from cultures and cells were pelleted at 1500 rpm. Resuspension of cells was performed in an appropriate volume of RPMI 1640 or DMEM medium to obtain a density of about 1.5-3 x 10^6 cells per mL. Cells were fractionated and treated with different concentrations of each drug or maintained as is (control). […] Suspensions were incubated for 60 min at 37 °C and 5% CO2. Suspensions used to evaluate the effect of biotin in platinum cellular uptake, were preincubated with 100 µM biotin for 15 min before the treatment with each drug. After incubation, cells were stained using Maxpar cell staining buffer (MCSB) and then fixed using 1.6% paraformaldehyde in PBS for 10 min at room temperature. Incubation with intercalator 103Rh diluted in Maxpar fix-perm buffer was performed overnight at 4 °C. Cells were washed twice with MCSB, samples were pelleted and resuspended in cell acquisition solution (CAS). A small volume of suspensions was maintained to quantify cells using Trypan blue staining. As last step, each sample was diluted with CAS and calibration beads that include metal isotopes.

[8] = test system: MDA-MB-231; assay: Platinum cell uptake by mass cytometry (CyTOF), MDA-MB-231; assay type: cell-based; conditions: 50 µM, 60 min, in comparison to carboplatin (Figure 2)
Procedure: as §1, §2
(§3) Medium was removed from cultures and cells were pelleted at 1500 rpm. Resuspension of cells was performed in an appropriate volume of RPMI 1640 or DMEM medium to obtain a density of about 1.5-3 x 10^6 cells per mL. Cells were fractionated and treated with different concentrations of each drug or maintained as is (control). […] Suspensions were incubated for 60 min at 37 °C and 5% CO2. Suspensions used to evaluate the effect of biotin in platinum cellular uptake, were preincubated with 100 µM biotin for 15 min before the treatment with each drug. […] A small volume of suspensions was maintained to quantify cells using Trypan blue staining. […]

[9] = test system: A549; assay: Platinum cell uptake by mass cytometry (CyTOF), A549; assay type: cell-based; conditions: 50 µM, 60 min, in comparison to carboplatin (Figure 2)
Procedure: as §1, §2, §3

[10] = Solubility; conditions: DMF
[11] = 72h, with addition of 10 µM D-(+)-Biotin (Table 2b), read-out: MCF-7 and biotin IC50
[12] = 72h, without biotin (Table 2b), read-out: MCF-7 IC50

N.N.[Cl][Pt][Cl] [Cisplatin, reference compound]
IC50 [1, 11]: 12 µM
IC50 [1, 12]: 9 µM
IC50 [2]: 7 µM and 8 µM

[NH3+][Pt-2]1([NH3+])[O]C(=O)C2(CCC2)C(=O)[O]1 [Carboplatin]
concentration at which less than 50% viability is reached [3]: 100 µM
Cmax ([4]; mouse, 60 mg/kg): 131 ± 50 µM
AUC at 2 h ([4]; mouse, 60 mg/kg, read-out: Areas under the curve (AUCs) (converted)): 69.4 µM·h

CC(N)C(N)CCCCCC(=O)O.O=C1[O][Pt][O]C1=O [PMX118, (7R,8S)-7,8-diaminononanoic acid oxalatoplatinum(ll)]
IC50 [5]: 225 µM and > 250 µM
IC50 ([1]; 72h (Table 3b), read-out: MCF-7 IC50): 100 µM
IC50 [1, 11]: 290 µM
IC50 [1, 12]: 133 µM
IC50 [2]: 225 µM and > 250 µM
IC50 [6]: 116 µM and 144 µM
cellular uptake (CyTOF Pt195 signal) [7]: significantly greater

C[C@@H]1[NH2+][Pt-2]([Cl])([Cl])[NH2+][C@@H]1CCCCCC(=O)O [PMX114, (7R,8S)-7,8-diaminononanoic acid dichloroplatinum(II)]
concentration at which less than 50% viability is reached [3]: > 300 µM
platinum uptake (CyTOF Pt195 signal) [8]: significantly greater
platinum uptake (CyTOF Pt195 signal) [9]: significantly greater
cellular uptake (CyTOF Pt195 signal) [7]: significantly greater
effect of biotin preincubation on platinum entry ([7]; preincubation with 100 µM of biotin for 15 min, then 50 µM drug): inhibition of platinum entry
AUC ([4]; female, C57BL/6, mouse, 75 mg/kg, read-out: Areas under the curve (AUCs) (converted)): 42.1 µM·h
Solubility [10]: good
